# According to publication PMC4871484, “Functional Green-Tuned Proteorhodopsin from Modern Stromatolites” (PLoS ONE, 2016):
# Molecular target: T1, E17R (E17-PR), green proteorhodopsin (Exiguobacterium sp. S17, UniProt S3FWZ0)
# T1 sequence (S3FWZ0 1-248): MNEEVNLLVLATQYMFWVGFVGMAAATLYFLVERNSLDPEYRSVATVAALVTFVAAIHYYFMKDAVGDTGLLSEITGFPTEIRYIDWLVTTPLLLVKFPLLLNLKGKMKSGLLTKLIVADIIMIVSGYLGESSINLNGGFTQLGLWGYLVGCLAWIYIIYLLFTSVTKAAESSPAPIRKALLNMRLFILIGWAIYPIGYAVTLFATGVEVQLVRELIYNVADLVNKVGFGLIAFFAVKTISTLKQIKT
# Experiment: UV-vis absorption of purified holoprotein; hydroxylamine bleaching to retinal oxime
# Assay type: binding
# Conditions: covalent; Schiff base with lysine; […] HEPES, […] NaCl, […] DDM; room temperature
structure (smiles),measurement,value
CC1=C(/C=C/C(C)=C/C=C/C(C)=C/C=O)C(C)(C)CCC1 [retinal],UV-vis absorption of purified holoprotein; hydroxylamine bleaching to retinal ox,Expression and purification of E17R yielded after purification and retinal addition a protein with λmax
